The values that follow come from patent US10010539B2, “Pyrazole, triazole and tetrazole orexin receptor antagonists” (MERCK SHARP & DOHME CORP., priority 2014, dated 2018).

For experiment [1], the target named is human orexin-2 receptor (Homo sapiens (Human), UniProt O43614). Kind of experiment: FLIPR Ca2+ Flux Assay, orexin-2 receptor (hOX2R FLIPR). Type of experiment: cell-based. To be noted: CHO cells expressing the human orexin-2 receptor; agonist 70 pM Ala-6,12 human orexin-A. The gist of the method:
(§1)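 IC50 from inhibition of the FLIPR calcium peak evoked by 70 pM Ala-6,12 orexin-A, relative to buffer-only control. Cells: CHO with rat OX1R or human OX2R, Fluo-4AM loaded. Compound added 5 min before agonist; fluorescence read every 1 s for 5 min.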

The target of experiment [2] is hOXIR (orexin-1 receptor) (Homo sapiens, UniProt O43613). Kind of experiment: FLIPR Ca2+ Flux Assay, orexin-1 receptor (hOXIR FLIPR). Type of experiment: cell-based. To be noted: CHO cells expressing the orexin-1 receptor (method text: rat; table head: hOXIR); agonist 70 pM Ala-6,12 human orexin-A. A digest of the protocol:
as §1

Molecules are shown by their SMILES. A value given as a limit tells only on which side of the number the result lay.

Chain of human orexin-2 receptor (O43614 whole entry): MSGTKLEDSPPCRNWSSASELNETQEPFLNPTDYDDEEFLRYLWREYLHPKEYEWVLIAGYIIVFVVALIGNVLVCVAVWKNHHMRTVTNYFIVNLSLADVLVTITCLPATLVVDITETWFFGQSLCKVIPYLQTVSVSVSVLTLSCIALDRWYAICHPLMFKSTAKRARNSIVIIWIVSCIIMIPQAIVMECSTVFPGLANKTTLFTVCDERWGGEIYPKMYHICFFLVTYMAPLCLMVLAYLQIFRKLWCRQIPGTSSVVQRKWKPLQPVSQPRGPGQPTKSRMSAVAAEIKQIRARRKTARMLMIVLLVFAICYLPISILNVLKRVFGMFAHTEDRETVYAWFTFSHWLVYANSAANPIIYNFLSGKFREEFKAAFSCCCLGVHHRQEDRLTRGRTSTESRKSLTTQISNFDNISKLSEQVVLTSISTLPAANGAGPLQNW

Take `Cc1nn([C@@H]2CC[C@@H](C)N(C(=O)c3ccccc3OC(F)(F)F)C2)nc1C(C)(C)O` [Example 67, 2-{5-Methyl-2-[(3R,6R)-6-methyl-1-{[2-(trifluoromethoxy)phenyl]carbonyl}piperidin-3-yl]-2H-1,2,3-triazol-4-yl}propan-2-ol]: the values for the IC50 in experiment [1] and in experiment [2] were 10.1 nM and 1150 nM, respectively.
Taken in the same sequence, the figures for `Cc1nn([C@@H]2CC[C@@H](C)N(C(=O)c3cccnc3OCC(F)(F)F)C2)nc1C(C)(C)O` [Example 68, 2-{5-mMethyl-2-[(3R,6R)-6-methyl-1-{[2-(2,2,2-trifluoroethoxy)pyridin-3-yl]carbonyl}piperidin-3-yl]-2H-1,2,3-triazol-4-yl}propan-2-ol] were 6.9 nM and 1520 nM.
In the same order, the values of `CCOc1ccccc1C(=O)N1C[C@H](n2nc(C)c(C(C)(C)O)n2)CC[C@H]1C` [Example 69, 2-(2-{(3R,6R)-1-[(2-Ethoxyphenyl)carbonyl]-6-methylpiperidin-3-yl}-5-methyl-2H-1,2,3-triazol-4-yl)propan-2-ol] are 7.9 nM and 1950 nM.
Taken in the same sequence, the figures for `Cc1nn([C@@H]2CC[C@@H](C)N(C(=O)c3ccccc3C3CC3)C2)nc1C(C)(C)O` [Example 70, 2-(2-{(3R,6R)-1-[(2-Cyclopropylphenyl)carbonyl]-6-methylpiperidin-3-yl}-5-methyl-2H-1,2,3-triazol-4-yl)propan-2-ol] were 8.8 nM and 760 nM.
For the compound `Cc1nn([C@@H]2CC[C@@H](C)N(C(=O)c3ccccc3-n3cccn3)C2)nc1C(C)(C)O` [Example 71, 2-{5-Methyl-2-[(3R,6R)-6-methyl-1-{[2-(1H-pyrazol-1-yl)phenyl]carbonyl}piperidin-3-yl]-2H-1,2,3-triazol-4-yl}propan-2-ol], the IC50 in experiment [1] worked out at 9.3 nM; in experiment [2], 2710 nM.
`Cc1nn([C@@H]2CC[C@@H](C)N(C(=O)c3ccc(F)cc3-n3nccn3)C2)nc1C(C)(C)O` [Example 72, 2-{2-[(3R,6R)-1-{[4-Fluoro-2-(2H-1,2,3-triazol-2-yl)phenyl]carbonyl}-6-methylpiperidin-3-yl]-5-methyl-2H-1,2,3-triazol-4-yl}propan-2-ol]: the IC50 in experiment [1] is 15.2 nM; in experiment [2] it was 1290 nM.
In the same order, the values of `Cc1nn([C@@H]2CC[C@@H](C)N(C(=O)c3cccnc3-c3ccccc3)C2)nc1C(C)(C)O` [Example 73, 2-(5-Methyl-2-{(3R,6R)-6-methyl-1-[(2-phenylpyridin-3-yl)carbonyl]piperidin-3-yl}-2H-1,2,3-triazol-4-yl)propan-2-ol] are 17.4 nM and 2460 nM.
In the same order, the values of `C[C@@H]1CC[C@@H](n2nnc(C(C)(C)O)n2)CN1C(=O)c1ccccc1-n1nccn1` [Example 74, 2-{2-[(3R,6R)-6-Methyl-1-{[2-(2H-1,2,3-triazol-2-yl)phenyl]carbonyl}piperidin-3-yl]-2H-tetrazol-5-yl}propan-2-ol] are 44.9 nM and above 10000 nM.
Taken in the same sequence, the figures for `C[C@@H]1CC[C@@H](n2cc(C(C)(C)O)cn2)CN1C(=O)c1ccccc1-n1nccn1` [Example 75, 2-{1-[(3R,6R)-6-Methyl-1-{[2-(2H-1,2,3-triazol-2-yl)phenyl]carbonyl}piperidin-3-yl]-1H-pyrazol-4-yl}propan-2-ol] were 21.6 nM and above 10000 nM.
With `CCCc1ccccc1C(=O)N1C[C@H](n2cc(C(C)(C)O)cn2)CC[C@H]1C` [Example 76, 2-(1-{(3R,6R)-6-Methyl-1-[(2-propylphenyl)carbonyl]piperidin-3-yl}-1H-pyrazol-4-yl)propan-2-ol], the figures for the IC50 in experiment [1] and in experiment [2] were 52.3 nM and above 10000 nM, respectively.
With `CCOc1ccccc1C(=O)N1C[C@H](n2cc(C(C)(C)O)cn2)CC[C@H]1C` [Example 77, 2-(1-{(3R,6R)-1-[(2-Ethoxyphenyl)carbonyl]-6-methylpiperidin-3-yl}-1H-pyrazol-4-yl)propan-2-ol], the IC50 in experiment [1] is 121 nM; in experiment [2] it was above 10000 nM.
Taken in the same sequence, the figures for `C[C@@H]1CC[C@@H](n2cc(C(C)(C)O)cn2)CN1C(=O)c1ccccc1C1CC1` [Example 78, 2-(1-{(3R,6R)-1-[(2-Cyclopropylphenyl)carbonyl]-6-methylpiperidin-3-yl}-1H-pyrazol-4-yl)propan-2-ol] were 25.5 nM and above 10000 nM.
Turning to `C[C@@H]1CC[C@@H](n2cc(C(C)(C)O)cn2)CN1C(=O)c1ccccc1OCC(F)F` [Example 79, 2-{1-[(3R,6R)-1-{[2-(2,2-Difluoroethoxy)phenyl]carbonyl}-6-methylpiperidin-3-yl]-1H-pyrazol-4-yl}propan-2-ol], the IC50 in experiment [1] was 127 nM; in experiment [2], above 10000 nM.
In the same order, the values of `C[C@@H]1CC[C@@H](n2cc(C(C)(C)O)cn2)CN1C(=O)c1ccccc1OCC(F)(F)F` [Example 80, 2-{1-[(3R,6R)-6-Methy-1-{[2-(2,2,2-trifluoroethoxy)phenyl]carbonyl}piperidin-3-yl]-1H-pyrazol-4-yl}propan-2-ol] are 165 nM and above 10000 nM.
In the same order, the values of `CC(C)Oc1ccccc1C(=O)N1C[C@H](n2cc(C(C)(C)O)cn2)CC[C@H]1C` [Example 81, 2-{1-[(3R,6R)-6-Methyl-1-{[2-(1-methylethoxy)phenyl]carbonyl}piperidin-3-yl]-1H-pyrazol-4-yl}propan-2-ol] are 89.8 nM and above 10000 nM.
Taken in the same sequence, the figures for `CC(C)c1ccccc1C(=O)N1C[C@H](n2cc(C(C)(C)O)cn2)CC[C@H]1C` [Example 82, 2-{1-[(3R,6R)-6-Methyl-1-{[2-(1-methylethyl)phenyl]carbonyl}piperidin-3-yl]-1H-pyrazol-4-yl}propan-2-ol] were 347 nM and above 10000 nM.
Consider `C[C@@H]1CC[C@@H](n2cc(C(C)(C)O)cn2)CN1C(=O)c1ccccc1OC(F)(F)F` [Example 83, 2-{1-[(3R,6R)-6-Methyl-1-{[2-(trifluoromethoxy)phenyl]carbonyl}piperidin-3-yl]-1H-pyrazol-4-yl}propan-2-ol], for which the IC50 was 31.4 nM in experiment [1] and above 10000 nM in experiment [2].
Taken in the same sequence, the figures for `C[C@@H]1CC[C@@H](n2cc(C(C)(C)O)cn2)CN1C(=O)c1ccccc1OC(F)F` [Example 84, 2-{1-[(3R,6R)-1-{[2-(Difluoromethoxy)phenyl]carbonyl}-6-methylpiperidin-3-yl]-1H-pyrazol-4-yl}propan-2-ol] were 464 nM and above 10000 nM.
In the same order, the values of `C[C@@H]1CC[C@@H](n2cc(C(C)(C)O)cn2)CN1C(=O)c1ccccc1[C@@H]1CC1(F)F` [Example 85, 2-{1-[(3R,6R)-1-({2-[(1S)-2,2-Difluorocyclopropyl]phenyl}carbonyl)-6-methylpiperidin-3-yl]-1H-pyrazol-4-yl}propan-2-ol] are 9.4 nM and 2640 nM.
Taken in the same sequence, the figures for `C[C@@H]1CC[C@@H](n2cc(C(C)(C)O)cn2)CN1C(=O)c1ccccc1[C@H]1CC1(F)F` [Example 86, 2-{1-[(3R,6R)-1-({2-[(1R)-2,2-Difluorocyclopropyl]phenyl}carbonyl)-6-methylpiperidin-3-yl]-1H-pyrazol-4-yl}propan-2-ol] were 152 nM and above 10000 nM.
Regarding `C[C@@H]1CC[C@@H](n2cc(C(C)(C)O)cn2)CN1C(=O)c1ccccc1C1CCC1` [Example 87, 2-(1-{(3R,6R)-1-[(2-Cyclobutylphenyl)carbonyl]-6-methylpiperidin-3-yl}-1H-pyrazol-4-yl)propan-2-ol], the IC50 in experiment [1] worked out at 49.3 nM; in experiment [2], 3290 nM.
As to `C[C@@H]1CC[C@@H](n2cc(C(C)(C)O)cn2)CN1C(=O)c1ccccc1SC(F)(F)F` [Example 88, 2-{1-[(3R,6R)-6-Methyl-1-({2-[(trifluoromethyl)sulfanyl]phenyl}carbonyl)piperidin-3-yl]-1H-pyrazol-4-yl}propan-2-ol], the IC50 in experiment [1] came to 15.2 nM; in experiment [2], 7930 nM.
Taken in the same sequence, the figures for `CCOc1ncccc1C(=O)N1C[C@H](n2cc(C(C)(C)O)cn2)CC[C@H]1C` [Example 89, 2-(1-{(3R,6R)-1-[(2-Ethoxypyridin-3-yl)carbonyl]-6-methylpiperidin-3-yl}-1H-pyrazol-4-yl)propan-2-ol] were 283 nM and above 10000 nM.
In the same order, the values of `C[C@@H]1CC[C@@H](n2cc(C(C)(C)O)cn2)CN1C(=O)c1cccnc1-n1cccn1` [Example 90, 2-{1-[(3R,6R)-6-Methyl-1-{[2-(1H-pyrazol-1-yl)pyridin-3-yl]carbonyl}piperidin-3-yl]-1H-pyrazol-4-yl}propan-2-ol] are 33.6 nM and above 10000 nM.
In the same order, the values of `C[C@@H]1CC[C@@H](n2cc(C(C)(C)O)cn2)CN1C(=O)c1ccc(F)cc1-n1nccn1` [Example 91, 2-{1-[(3R,6R)-1-{[4-Fluoro-2-(2H-1,2,3-triazol-2-yl)phenyl]carbonyl}-6-methylpiperidin-3-yl]-1H-pyrazol-4-yl}propan-2-ol] are 18.8 nM and above 10000 nM.
In the case of `C[C@@H]1CC[C@@H](n2cc(C(C)(C)O)cn2)CN1C(=O)c1cccnc1-c1ccccc1` [Example 92, 2-(1-{(3R,6R)-6-Methyl-1-[(2-phenylpyridin-3-yl)carbonyl]piperidin-3-yl}-1H-pyrazol-4-yl)propan-2-ol], the half-maximal inhibitory concentration (IC50) in experiment [1] is 195 nM; in experiment [2], above 10000 nM.
Taken in the same sequence, the figures for `C[C@@H]1CC[C@@H](n2cc(C(C)(C)O)cn2)CN1C(=O)c1ccccc1-n1cccn1` [Example 93, 2-{1-[(3R,6R)-6-Methyl-1-{[2-(1H-pyrazol-1-yl)phenyl]carbonyl}piperidin-3-yl]-1H-pyrazol-4-yl}propan-2-ol] were 92.7 nM and above 10000 nM.
